Test results as given in PubChem BioAssay (NCI).
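Values below derive from 48-hour exposures of cells grown in 96-well plates, with endpoints linearly interpolated between the two concentrations bracketing the appropriate inhibition level. Abbreviation: GI50, concentration required for 50% inhibition of growth. TGI: concentration producing complete growth inhibition.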

How the values were obtained:
Test in all cases: growth of human tumour cells (NCI), 48 h
[1] = tested on: SW-620 colon
[2] = tested on: EKVX NSCLC
[3] = tested on: HCT-116 colon
[4] = tested on: UACC-62 melanoma
[5] = tested on: OVCAR-4 ovarian
[6] = tested on: ACHN renal
[7] = tested on: CAKI-1 renal
[8] = tested on: HL-60(TB) leukemia
[9] = tested on: BT-549 breast
[10] = tested on: SK-MEL-28 melanoma
[11] = tested on: SF-295 CNS
[12] = tested on: U251 CNS
[13] = tested on: A498 renal
[14] = tested on: SNB-75 CNS
[15] = tested on: LOX IMVI melanoma
[16] = tested on: M14 melanoma
[17] = tested on: NCI-H23 lung
[18] = tested on: SF-539 CNS
[19] = tested on: MOLT-4 leukemia
[20] = tested on: SK-OV-3 ovarian
[21] = tested on: UACC-257 melanoma
[22] = tested on: SK-MEL-5 melanoma
[23] = tested on: MDA-MB-231 breast
[24] = tested on: RPMI-8226 leukemia
[25] = tested on: SR leukemia
[26] = tested on: RXF 393 renal
[27] = tested on: COLO 205 colon
[28] = tested on: HOP-62 NSCLC
[29] = tested on: HS 578T breast
[30] = tested on: SNB-19 CNS
[31] = tested on: PC-3 prostate
[32] = tested on: A549 NSCLC
[33] = tested on: HCT-15 colon
[34] = tested on: T-47D breast
[35] = tested on: NCI/ADR-RES ovarian
[36] = tested on: SF-268 CNS
[37] = tested on: HCC-2998 colon
[38] = tested on: KM12 colon
[39] = tested on: 786-0 renal
[40] = tested on: OVCAR-8 ovarian
[41] = tested on: NCI-H226 lung
[42] = tested on: K-562 leukemia
[43] = tested on: MALME-3M melanoma
[44] = tested on: UO-31 renal
[45] = tested on: IGROV1 ovarian
[46] = tested on: OVCAR-5 ovarian
[47] = tested on: MDA-MB-435
[48] = tested on: HOP-92 NSCLC
[49] = tested on: MCF7 breast
[50] = tested on: NCI-H460 lung
[51] = tested on: TK-10 renal
[52] = tested on: NCI-H522 lung
[53] = tested on: CCRF-CEM leukemia
[54] = tested on: SK-MEL-2 melanoma
[55] = tested on: HT29 colon
[56] = tested on: SN12C renal
[57] = tested on: DU-145 prostate

Cc1ccc(C)c(COc2cc(NC(=O)c3ccc4c(c3)OCO4)ccc2N(C)S(C)(=O)=O)c1
GI50 [1]: 77.8 nM
TGI [1]: > 100000 nM
GI50 [2]: 466 nM
TGI [2]: > 100000 nM
GI50 [3]: 66.2 nM
TGI [3]: 1120 nM
GI50 [4]: 179 nM
TGI [4]: > 100000 nM
GI50 [5]: 648 nM
TGI [5]: > 100000 nM
GI50 [6]: 420 nM
TGI [6]: > 100000 nM
GI50 [7]: 160 nM
TGI [7]: > 100000 nM
GI50 [8]: 38.7 nM
TGI [8]: 489 nM
GI50 [9]: 374 nM
TGI [9]: > 100000 nM
GI50 [10]: 3740 nM
TGI [10]: > 100000 nM
GI50 [11]: 62.1 nM
TGI [11]: 439 nM
GI50 [12]: 238 nM
TGI [12]: > 46800 nM
GI50 [13]: 122 nM
TGI [13]: 853 nM
GI50 [14]: 111 nM
TGI [14]: 1180 nM
GI50 [15]: 79.3 nM
TGI [15]: > 100000 nM
GI50 [16]: 65.7 nM
TGI [16]: 560 nM
GI50 [17]: 213 nM
TGI [17]: > 100000 nM
GI50 [18]: 118 nM
TGI [18]: 790 nM
GI50 [19]: 228 nM
TGI [19]: > 100000 nM
GI50 [20]: 217 nM
TGI [20]: > 100000 nM
GI50 [21]: 1870 nM
TGI [21]: > 100000 nM
GI50 [22]: 172 nM
TGI [22]: 1670 nM
GI50 [23]: 231 nM
TGI [23]: 798 nM
GI50 [24]: 319 nM
TGI [24]: > 100000 nM
GI50 [25]: 45.7 nM
TGI [25]: > 100000 nM
GI50 [26]: 128 nM
TGI [26]: 403 nM
GI50 [27]: 257 nM
TGI [27]: 816 nM
GI50 [28]: 570 nM
TGI [28]: > 100000 nM
GI50 [29]: 36.3 nM
TGI [29]: 307 nM
GI50 [30]: 332 nM
TGI [30]: > 100000 nM
GI50 [31]: 131 nM
TGI [31]: > 100000 nM
GI50 [32]: 282 nM
TGI [32]: > 36900 nM
GI50 [33]: 127 nM
TGI [33]: > 100000 nM
GI50 [34]: 807 nM
TGI [34]: > 100000 nM
GI50 [35]: 56.2 nM
TGI [35]: 407 nM
GI50 [36]: 310 nM
TGI [36]: > 100000 nM
GI50 [37]: 132 nM
TGI [37]: 397 nM
GI50 [38]: 77 nM
TGI [38]: 1060 nM
GI50 [39]: 192 nM
GI50 [40]: 286 nM
TGI [40]: > 100000 nM
GI50 [41]: 904 nM
TGI [41]: > 100000 nM
GI50 [42]: 44.6 nM
TGI [42]: > 100000 nM
GI50 [43]: 111 nM
TGI [43]: > 100000 nM
GI50 [44]: 348 nM
TGI [44]: > 100000 nM
GI50 [45]: 237 nM
TGI [45]: > 100000 nM
GI50 [46]: 513 nM
TGI [46]: > 100000 nM
GI50 [47]: 24.8 nM
TGI [47]: 71.8 nM
GI50 [48]: 2590 nM
TGI [48]: > 100000 nM
GI50 [49]: 71.6 nM
TGI [49]: > 100000 nM
GI50 [50]: 139 nM
TGI [50]: 711 nM
GI50 [51]: 402 nM
TGI [51]: > 100000 nM
GI50 [52]: 81.5 nM
TGI [52]: 424 nM
GI50 [53]: 86.6 nM
TGI [53]: > 100000 nM
GI50 [54]: 595 nM
GI50 [55]: 114 nM
TGI [55]: 2340 nM
GI50 [56]: 447 nM
TGI [56]: > 100000 nM
GI50 [57]: 172 nM
TGI [57]: 543 nM
